# B1: rCD154: recombinant CD40 ligand, member of the TNF-α superfamily (protein, UniProt P29965 113-261, looked up)
# CD40 ligand, soluble form: MQKGDQNPQIAAHVISEASSKTTSVLQWAEKGYYTMSNNLVTLENGKQLTVKRQGLYYIYAQVTFCSNREASSQAPFIASLCLKSPGRFERILLRAANTHSSAKPCGQQSIHLGGVFELQPGASVFVNVTDPSQVSHGTGFTSFGLLKL
# Legend:
# IL-16 and RANTES = experiment: Expression of IL-16 and RANTES (FIG. 4); type: cell-based
# From the text: Referring to FIG. 5, these findings on the role of IL-16 and RANTES in the fibroblast/lymphocyte inflammation cascade provide options for therapies for TAO, RA and other antibody-mediated inflammatory auto-immune disorders. The method of the therapeutic aspect of the invention involves inhibiting the activity of the two chemoattractant molecules that are substantial contributors to the inflammation cascade, IL-16 and RANTES. IL-16 inhibitors include, but are not limited to, rapamycin, wortmannin, caspase-3 inhibitor, and anti-IL-16 antibody. RANTES inhibitors include, but are not limited to, SB203580, and anti-RANTES antibody. […] These compounds either block translation of the chemoattractant molecules, prevent release of chemoattractant molecules from the cell after they are translated, or neutralize the chemoattractant molecules' ability to cause lymphocytic chemotaxis after they are released.
# TAO fibroblasts = experiment: PGE2 synthesis in TAO fibroblasts; type: cell-based, human; settings: FIG. 7A
# Protocol: FIGS. 7A and 7B show the up-regulation of PGE2 synthesis and blockage with SC58125 (a PGHS-2 inhibitor) and dexamethasone (7A) and PGHS-2 expression (7B) in TAO fibroblasts.
# Referring to FIGS. 7A and 7B, CD40 ligation in orbital fibroblasts results in the induction of PGHS-2 and leads to the over-production of PGE2. […] CD40 ligation in these cultures results in the intermediate activation of IL-1α gene expression. This induction occurs after 6 h of treatment and is mediated at the pre-translational level. IL-1β is undetectable in orbital fibroblasts and is not induced by CD154. Interrupting the expression, receptor binding or activity of IL-1α attenuates the induction of PGHS-2 provoked by CD40 ligation. It is notable that CD40 is over-expressed by thyroid epithelium in Graves' disease and provokes constitutive PGHS-2 expression. Moreover, functional CD40 is expressed by human thyroid fibroblasts.
# orbital fibroblasts [1] = experiment: Differentiation of orbital fibroblasts into adipocytes; type: cell-based, human; settings: parent strain, transient exposure; flow analysis
# From the text: FIGS. 13A-13D show induction of differentiation of Thy-1^− orbital fibroblasts into adipocytes by the […] ligand rosiglitazone. A control phase contrast of parental strain (B) flow cytometric analysis of parental strain showing absence of adipocytes (C) phase contrast post-differentiation showing adipocyte clusters (D) flow analysis showing 44% adipocyte differentiated.
# An under-appreciated feature of the tissue remodeling associated with TAO is the expansion of the fat deposit. In fact, a number of surgical therapeutic strategies are aimed directly at reducing the mass of fat in TAO. These have been variably successful in reducing the mechanical embarrassment imposed by excessive fat volumes in TAO. […] While only a small fraction of orbital fibroblasts undergo differentiation into mature adipocytes, the fraction is invariant with regard to whether the fibroblasts were from a patient with TAO or from normal orbital tissues. While this discovery was of substantial interest to us, we realized that the differentiation of such a small fraction of cells might preclude determining the phenotypic changes accompanying them. However, referring to FIGS. 12A-12D, transient exposure to the PPARγ ligand (rosiglitazone) 45 to 65% of the cells in a parent strain matured to adipocytes showing that orbital fibroblasts express abundant PPARγ. […]
# IL-16 = IL-16 ELISA of medium from treated fibroblasts, GD donors; type: cell-based, human; settings: TAO orbital fibroblasts; IGF-1 10 nM, TSH high concentrations
# From the text: (§1) In addition to its therapeutic aspects, the present invention also relates to a diagnostic method for detecting the presence of antibody-activated fibroblasts in the patient. Applicants believe that several auto immune diseases or disorders are associated with antibody-activated fibroblasts. […] Altered levels of these chemoattractants can be detected in various biological samples in mammals, preferably humans. Levels of IL-16 and/or RANTES may be monitored in a patient, using standard techniques, as an indication of the deleterious aspects of the disease condition. Biological samples, including but not limited to serum, vitreous humor, aqueous humor, synovial fluid, and tissue, will be drawn from the patient using standard techniques. Particularly preferred are serum samples. The measurement of the IL-16 and RANTES levels may be monitored using any method possible to detect the levels of these proteins in biological samples. A preferred method of analysis is by ELISA as described in Sciaky, D. et al., J. Immunol. 164(7):3806-14, 2000. An ELISA specific for IL-16 can be used to assess the levels released by fibroblasts as described previously in Lim, K. G. et al., J. Immunol. 156(7): 2566-70, 1996. An ELISA specific for RANTES can be used according to the manufacturer's specification (BioSource Intl., Camarillo, Calif.).
# (§2) The levels of IL-16 and RANTES were then assessed with specific ELISAs. The ELISA assay for IL-16 is performed essentially as discussed in Sciaky D., Brazer, W., Center, D. M., Cruikshank, W. W. and Smith, T. J.: Cultured human fibroblasts express constitutive IL-16 mRNA: Cytokine induction of active IL-16 protein synthesis through a caspase-3-dependent mechanism. J. Immunol. 164(7):3806-14, 2000). An ELISA (BioSource) for RANTES was performed according to the manufacturer's instructions.
# RANTES = RANTES ELISA of medium from treated fibroblasts, GD donors; type: cell-based, human; settings: TAO orbital fibroblasts; IGF-1 10 nM, TSH high concentrations
# From the text: as §1, §2
# orbital fibroblasts [2] = experiment: IL-6 and IL-8 synthesis in orbital fibroblasts on CD40 ligation; type: cell-based, human; settings: orbital fibroblasts treated with rCD154
# From the text: These include IL-6 and IL-8, two important molecules critical to the activation and trafficking of bone marrow derived cells to sites of inflammation and which have been implicated in Graves' disease. […] Nuclear translocation of NF-κB is provoked by CD40 ligation and inhibiting the activation of this transcriptional factor by stabilizing the NF-κB/IκB complex can block the induction of both IL-6 and IL-8.
molecule,measurement,setting,value
COc1cccc(-c2cc(=O)c3ccccc3o2)c1N [PD098059],effect on IL-16 and RANTES expression,IL-16 and RANTES,inhibition of expression
C[S+]([O-])c1ccc(-c2nc(-c3ccncc3)c(-c3ccc(F)cc3)[nH]2)cc1 (stereo not shown) [SB203580],effect on IL-16 and RANTES expression,IL-16 and RANTES,inhibition of expression
CS(=O)(=O)c1ccc(-n2nc(C(F)(F)F)cc2-c2ccc(F)cc2)cc1 [SC58125],effect on up-regulation of PGE2 synthesis,TAO fibroblasts,blockage
CN(CCOc1ccc(CC2SC(=O)NC2=O)cc1)c1ccccn1 (stereo not shown) [rosiglitazone],cells matured (differentiated) to adipocytes,orbital fibroblasts [1],44%
"IGF-1: authentic IGF-1, ligand of the IGF-1 receptor",induction of IL-16 expression by the substance itself,IL-16,mimicked
same,induction of RANTES expression by the substance itself,RANTES,mimicked
B1,synthesis of both IL-6 and IL-8,orbital fibroblasts [2],dramatically increased
